The source of these data is patent publication US20060148896A1, “Use of an alkanoyl L-carnitine for the preparation of a medication to treat anhedonia” (Sigma-Tau Industrie Farmaceutiche Riunite S.p.A., priority 2001, published 2006).

What all share (format): in vivo, rat
Experiment [1] concerns dopamine in the nucleus accumbens (Nacs). The experiment can be described thus: Microdialysis of dopamine in the Nacs after 7-day stress: basal, vanilla sugar meals, cocaine (Example 2). As to conditions: for Dopamine (max percentage increase) Meal 1 / Dopamine (max percentage increase) Meal 2: mean ± standard error of 10; for protection from the neurochemical effects resulting from a repeated exposure to stress: Example 2, IMI 5 mg/kg IP BID or FLX 5 mg/kg IP/die for 8 days with 7-day stress. The protocol: Sixty rats were divided in 6 groups of 10 animals each, as follows:
a) Control (Crt): the animals were administered physiological solution 1 ml/kg IP, BID for 8 days;
b) acetyl L-carnitine: the animals were administered acetyl L-carnitine 10 mg/kg IP, BID for 8 days;
c) Stress: the animals were exposed to the pre-test, they were tested for escape 24 hours later, and then they were exposed to the chronic stress protocol for 7 days, while receiving physiological solution (for 8 days);
d) acetyl L-carnitine+Stress: the animals were exposed to the pre-test, they were tested for escape 24 hours later, and then they were exposed to the chronic stress protocol for 7 days, while receiving acetyl L-carnitine 10 mg/kg IP, BID, for 8 days;
e) IMI+Stress: the animals were exposed to the pre-test, they were tested for escape 24 hours later, and then they were exposed to the chronic stress protocol for 7 days, while receiving IMI 5 mg/kg IP, BID for 8 days;
f) FLX+Stress: the animals were exposed to the pre-test, they were tested for escape 24 hours later, and then they were exposed to the chronic stress protocol for 7 days, while receiving FLX 5 mg/kg IP/die for 8 days.
On day 9, all the animals were implanted with dialysis probes in the Nacs; on day 10, the animals were dialysed.
The basal levels of dopamine were determined over 60 minutes.
At this point, the rats were offered 5 vanilla sugar pellets (Meal 1); 4 samples of dialysis fluid were taken over the next 60 minutes.
The rats were offered vanilla sugar one more time (Meal 2), and samples of dialysis fluid were taken over 60 minutes.
Finally, the rats were injected with cocaine 5 mg/kg IP, 0.1 ml in water and samples of dialysis fluid were taken over 60 minutes.

In experiment [2] the test system is rats exposed to chronic stress. The experiment can be described thus: Acquisition of vanilla sugar-sustained appetitive behaviour (VAB) in the Y-maze during chronic stress. As to conditions: for No. of correct choices: rats, ALCAR 10 mg/kg IP, BID or IMI 5 mg/kg BID started after pre-test, chronic stress 8 days, then 3-week Y-maze training with stress on alternate days, mean ± standard error; for protection from negative effect of chronic stress on VAB acquisition: second experiment: chronic administration during exposure to stress and training in the Y-maze. From the text: The anhedonia model is based on the observation that the fact of being exposed to a repeated unavoidable stress prevents the development of an appetitive behaviour induced and maintained by a highly palatable food (vanilla sugar) in rats fed ad libitum (Behav. Pharmacol. 8:619-628, 1997). […]
The Y-maze was made up of three wings. The vanilla sugar for the acquisition of the appetitive behaviour was in one of the two diverging wings (VAB training, 3 weeks).
e) VAB: the physiological solution was administered to the animals (1 ml/kg IP, BID) for 8 days, and then the rats were trained in the Y-maze for VAB acquisition while continuing the treatment with physiological solution for 3 weeks;
(§1) f) Stress+VAB: the animals were exposed to the pre-test. Twenty-four hours later they were subjected to the escape test, and then exposed to the chronic stress procedure for 7 days. On day 9, they started their training in the Y-maze while exposed to stress on alternate days;
(§2) g) acetyl L-carnitine+Stress+VAB: the animals were exposed to the pre-test. Twenty-four hours later they underwent the escape test. Then, they were exposed to the protocol of chronic stress for 7 days, while receiving acetyl L-carnitine 10 mg/kg IP, BID for 8 days. On day 9, the rats started their VAB training in the Y-maze and exposure to stress on alternate days, while continuing treatment with the acetyl L-carnitine for 3 weeks;
(§3) h) IMI+Stress+VAB: the animals were exposed to the pre-test. Twenty-four hours later, they underwent the escape test, and then they were exposed to the chronic stress protocol for 7 days while receiving imipramine 5 mg/kg IP, BID for 8 days. On day 9, the rats started their training in the Y-maze and exposure to stress on alternate days, while continuing with IMI for 3 weeks.

Experiment [3] relates to dopamine in the nucleus accumbens (Nacs). The experiment can be described thus: Microdialysis of extraneuronal dopamine in the nucleus accumbens after VAB training (Example 1). As to conditions: rats trained in the Y-maze during chronic stress exposure and treated; for dopamine in the Nacs after the acute administration of cocaine vs control animals (FIGS. 3 and 4): cocaine 5 mg/kg IP. On the procedure: Two days later, animals were implanted with microdialysis probes into the nucleus accumbens (Nacs) (Brain. Res. Protocols 5(1):16-24: 2000) and underwent dialysis on the next day.
Once the dopamine basal level had been reached, the rats were administered a single dose of cocaine 5 mg/kg IP in 0.1 ml volume of water, and dialysed within the next 60 minutes.

Experiment [4] deals with rats exposed to chronic stress. The experiment can be described thus: Escape test in rats exposed to unavoidable/chronic stress. As to conditions: for N0 of escapes After 8 days / N0 of escapes After stress + 3-week VAB training: ALCAR 10 mg/kg IP; for N0 of escapes After 8 days: BID or IMI 5 mg/kg BID plus chronic stress for 8 days; for N0 of escapes After stress + 3-week VAB training: BID or IMI 5 mg/kg BID, 8 days plus 3 weeks with stress on alternate days; for escape deficit induced by chronic stress: second experiment, end of 3-week training. The protocol: c) Stress: 10 rats were treated with physiological solution (1 ml/kg IP, BID) for 14 days. Then, the animals were exposed to the sequence of pre-test [with the pre-test, the animals were exposed to both unavoidable stress (electric shocks) of minimum intensity and duration, capable to induce a reliable modification of behaviour. Brain. Res. Protocols 7(1):11-20; 2001]; escape test [(also defined as “test”) carried out 24 hours after the pre-test, to assess the induced behaviour modification (Brain. Res. Protocols 7(1):11-20; 2001)]; Y- maze training and exposure to the chronic stress procedure on alternate days (maze one day, and stress the next day) for three weeks (Brain. Res. Protocols 7(1): 11-20; 2001), while continuing treatment with physiological solution;
d) acetyl L-carnitine+Stress: 10 rats were treated with acetyl L-carnitine (10 mg/kg, IP, BID) for 14 days. Then, animals were exposed to the sequence of: -pre-test; -test; -Y-maze training and simultaneously exposed to the chronic stress procedure on alternate days (maze one day, and stress the next day) for three weeks, while continuing treatment with acetyl L-camitine.
At the end of the VAB training, all the animals exposed to stress underwent the escape test (Brain. Res. Protocols 7(1):11-20; 2001).
as §1, §2, §3
At the end of the training period, all the animals underwent the escape test.

Where [5] appears, read: rats exposed to chronic stress for 7 days during ALCAR 10 mg/kg IP BID, IMI 5 mg/kg IP BID or FLX 5 mg/kg IP/die, 8 days, Nacs.

As for `CC(=O)O[C@H](CC(=O)[O-])C[N+](C)(C)C` [ALCAR, acetyl L-carnitine], the “basal levels of dopamine in the Nacs vs control rats (FIGS. 5 and 6)” value in experiment [1] (Example 2, 8-day treatment) was “significantly higher”. In experiment [1] (Example 2, 8-day treatment, cocaine 5 mg/kg IP), the “increase of dopamine in the Nacs after the acute administration of cocaine vs control rats” value is reported as “significantly higher”. For the same compound, in experiment [1] (setting [5]), the “Dopamine (max percentage increase) Meal 1” value is given as 286.4 ± 16.4 % and the “Dopamine (max percentage increase) Meal 2” value came out at 276.7 ± 18.6 %. The “increase in the output of dopamine after two consecutive vanilla sugar meals” value in experiment [1] (rats exposed to stress and treated with acetyl L-carnitine, Nacs) is recorded as “approx 300%”. For the same compound, in experiment [1] (rats not exposed to stress, acetyl L-carnitine 10 mg/kg IP, BID 8 days, Nacs dialysate after first vanilla sugar meal), the “Dopamine (max percentage increase) Meal 1” value stood at 35.7 ± 1.8 %. Also, the “Dopamine (max percentage increase) Meal 2” value in experiment [1] (rats not exposed to stress, acetyl L-carnitine 10 mg/kg IP, BID 8 days, Nacs dialysate after second vanilla sugar meal) was 6.8 ± 5.1%. In addition, the “negative effect of chronic stress on VAB acquisition (FIGS. 1 and 2)” value in experiment [2] (first experiment: 14-day pre-treatment 10 mg/kg IP BID, continued throughout training with chronic stress) is given as “prevented such negative effect from occurring”. In experiment [2], the “No. of correct choices” value amounted to 7.6 ± 0.5 and the “protection from negative effect of chronic stress on VAB acquisition” value is “fully protected the rats from negative effect of chronic stress on VAB acquisition”. Moreover, in experiment [3], the “basal levels of extraneuronal dopamine in the Nacs vs control animals (FIGS. 3 and 4)” value is reported as “significantly higher”; the “dopamine output levels in the Nacs vs control group” value is recorded as “superimposable to those observed in the control group”; the “dopamine in the Nacs after the acute administration of cocaine vs control animals (FIGS. 3 and 4)” value is “significantly higher”. Further, in experiment [4] (rats, mean ± standard error), the “N0 of escapes After 8 days” value stood at 1.0 ± 0.5 and the “N0 of escapes After stress + 3-week VAB training” value is reported as 22.4 ± 2.8. Further, the “No. of escapes 24 hours after the pre-test” value in experiment [4] (rats, acetyl L-carnitine 10 mg/kg IP, BID for 14 days before pre-test, mean ± standard error) was found to be 25.8 ± 2.5. Moreover, the “No. of escapes After training for VAB and exposure to stress” value in experiment [4] (rats, acetyl L-carnitine 10 mg/kg IP, BID, 14-day pre-treatment continued during 3-week VAB training and chronic stress, mean ± standard error) was 26.4 ± 2.9. Also, the “escape deficit induced by chronic stress” value in experiment [4] is recorded as “completely reversed”.
Regarding `CNCCC(Oc1ccc(C(F)(F)F)cc1)c1ccccc1` (stereo not shown) [FLX, fluoxetine, reference compound], the “protection from the neurochemical effects resulting from a repeated exposure to stress” value in experiment [1] is reported as “Neither the treatment with IMI nor the treatment with FLX were capable to protect”. Further, in experiment [1] (setting [5]), the “Dopamine (max percentage increase) Meal 1” value is 4.6 ± 4.2% and the “Dopamine (max percentage increase) Meal 2” value was found to be 3.6 ± 4.0%.
Turning to `CN(C)CCCN1c2ccccc2CCc2ccccc21` [IMI, imipramine, reference compound], the “protection from the neurochemical effects resulting from a repeated exposure to stress” value in experiment [1] is given as “Neither the treatment with IMI nor the treatment with FLX were capable to protect”. In experiment [1] (setting [5]), the “Dopamine (max percentage increase) Meal 1” value is 3.3 ± 2.3% and the “Dopamine (max percentage increase) Meal 2” value is 4.1 ± 3.5%. In addition, in experiment [2], the “No. of correct choices” value was determined as 2.9 ± 1.2 and the “protection from negative effect of chronic stress on VAB acquisition” value is reported as “protected the rats from the negative effect of chronic stress on VAB acquisition”. In addition, in experiment [3], the “basal levels of extraneuronal dopamine in the Nacs vs control animals (FIGS. 3 and 4)” value is reported as “significantly lower”; the “dopamine in the Nacs after the acute administration of cocaine vs control animals (FIGS. 3 and 4)” value is “significantly lower”. For the same compound, in experiment [4] (rats, mean ± standard error), the “N0 of escapes After 8 days” value came out at 2.5 ± 1.1 and the “N0 of escapes After stress + 3-week VAB training” value is listed as 24.8 ± 1.0. The “escape deficit induced by chronic stress” value in experiment [4] is “completely reversed”.
